Experimental data taken from ChEMBL document CHEMBL5465560, “Selectivity Literature for EUbOPEN Chemogenomic Library” (2024).

Assays:
[1] = target: T1, Phosphatidylinositol 5-phosphate 4-kinase type-2 gamma (Homo sapiens) (UniProt Q8TBX8); assay: Selectivity interaction (Kinase panel (KiNativ target engagement assay in Jurkat cells)) EUB0001635a PIP4K2C; type: cell-based; conditions: Selectivity number of off-targets 0.0, Selectivity number of targets 233.0, Source Knowledge https://www.sciencedirect.com/science/article/pii/S2451945619300674?via%3Dihub, at 1 µM
T1 sequence (whole entry): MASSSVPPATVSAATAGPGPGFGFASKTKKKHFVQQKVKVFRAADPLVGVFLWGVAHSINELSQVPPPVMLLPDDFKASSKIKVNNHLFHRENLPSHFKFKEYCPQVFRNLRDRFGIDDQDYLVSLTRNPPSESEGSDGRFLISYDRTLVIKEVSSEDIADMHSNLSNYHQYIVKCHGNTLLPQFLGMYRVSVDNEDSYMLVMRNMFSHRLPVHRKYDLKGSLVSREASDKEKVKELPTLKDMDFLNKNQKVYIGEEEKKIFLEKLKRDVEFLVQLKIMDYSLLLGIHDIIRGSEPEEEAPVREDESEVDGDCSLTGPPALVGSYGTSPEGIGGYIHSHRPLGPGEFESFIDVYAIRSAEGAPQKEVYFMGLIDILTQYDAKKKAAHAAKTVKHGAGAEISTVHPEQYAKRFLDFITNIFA

[2] = target: Serine/threonine-protein kinase OSR1 (Homo sapiens) (UniProt O95747); assay: Selectivity interaction (KinomeScan (DiscoverX)) EUB0000229b OXSR1; conditions: at 10 µM
[3] = target: Tyrosine-protein kinase SYK (Homo sapiens, UniProt P43405); assay: Selectivity interaction (KinomeScan (DiscoverX)) EUB0000229b SYK; conditions: at 10 µM
[4] = test system: Fibroblast growth factor receptor 3 (Homo sapiens), P22607 [G697C]; assay: (§1) Selectivity interaction (KinomeScan (DiscoverX)) EUB0000666a FGFR3; conditions: at 10 µM
[5] = target: Fibroblast growth factor receptor 3 (Homo sapiens, UniProt P22607); assay: as §1; conditions: at 10 µM
[6] = target: Tyrosine-protein kinase Lck (Homo sapiens, UniProt P06239); assay: Selectivity interaction (KinomeScan (DiscoverX)) EUB0000666a LCK; conditions: at 10 µM
[7] = target: Mitogen-activated protein kinase kinase kinase 11 (Homo sapiens) (UniProt Q16584); assay: Selectivity interaction (KinomeScan (DiscoverX)) EUB0000666a MAP3K11; conditions: at 10 µM
[8] = target: T2, Ankyrin repeat and protein kinase domain-containing protein 1 (Homo sapiens) (UniProt Q8NFD2); assay: Selectivity interaction (KinomeScan (DiscoverX)) EUB0001049a ANKK1; conditions: at 1 µM
T2 sequence (whole entry): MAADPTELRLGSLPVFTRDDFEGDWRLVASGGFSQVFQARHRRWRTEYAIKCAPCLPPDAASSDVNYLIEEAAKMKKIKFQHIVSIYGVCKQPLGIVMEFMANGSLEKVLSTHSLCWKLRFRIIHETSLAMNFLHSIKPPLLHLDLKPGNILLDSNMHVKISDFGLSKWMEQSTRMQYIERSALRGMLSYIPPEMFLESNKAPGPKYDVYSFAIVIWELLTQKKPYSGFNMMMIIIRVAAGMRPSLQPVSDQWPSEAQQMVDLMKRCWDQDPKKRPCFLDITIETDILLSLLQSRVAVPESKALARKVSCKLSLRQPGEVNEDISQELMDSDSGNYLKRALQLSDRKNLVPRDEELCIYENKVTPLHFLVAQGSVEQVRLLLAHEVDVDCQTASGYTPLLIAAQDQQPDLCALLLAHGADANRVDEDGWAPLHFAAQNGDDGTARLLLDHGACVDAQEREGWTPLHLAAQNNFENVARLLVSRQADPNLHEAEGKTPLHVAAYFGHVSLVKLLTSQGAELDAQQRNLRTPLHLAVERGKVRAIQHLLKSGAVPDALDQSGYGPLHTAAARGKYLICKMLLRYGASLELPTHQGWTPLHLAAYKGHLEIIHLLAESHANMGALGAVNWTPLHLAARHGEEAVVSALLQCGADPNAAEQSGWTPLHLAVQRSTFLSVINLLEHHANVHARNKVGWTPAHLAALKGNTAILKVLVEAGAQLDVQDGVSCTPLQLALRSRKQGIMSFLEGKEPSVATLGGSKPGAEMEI

[9] = target: Serine/threonine-protein kinase SIK3 (Homo sapiens) (UniProt Q9Y2K2); assay: Selectivity interaction (KinomeScan (DiscoverX)) EUB0000607a SIK3; conditions: at 10 µM
[10] = target: Mitogen-activated protein kinase 1 (Homo sapiens, UniProt P28482); assay: Selectivity interaction (Kinase panel (DSF assay)) EUB0001558a MAPK1
[11] = target: Ribosomal protein S6 kinase alpha-3 (Homo sapiens, UniProt P51812); assay: Selectivity interaction (KinomeScan (DiscoverX)) EUB0000092b RPS6KA3; conditions: at 10 µM
[12] = target: Calcium/calmodulin-dependent protein kinase type II subunit delta (Homo sapiens) (UniProt Q13557); assay: Selectivity interaction (Ambit KINOMEscan and KiNATiv profiling in Jurkat cells) EUB0000090b CAMK2D; type: cell-based; conditions: at 1 µM
[13] = target: T3, Testis-specific serine/threonine-protein kinase 1 (Homo sapiens) (UniProt Q9BXA7); assay: Selectivity interaction (Ambit KINOMEscan and KiNATiv profiling in Jurkat cells) EUB0000090b TSSK1B; type: cell-based; conditions: at 1 µM
T3 sequence (whole entry): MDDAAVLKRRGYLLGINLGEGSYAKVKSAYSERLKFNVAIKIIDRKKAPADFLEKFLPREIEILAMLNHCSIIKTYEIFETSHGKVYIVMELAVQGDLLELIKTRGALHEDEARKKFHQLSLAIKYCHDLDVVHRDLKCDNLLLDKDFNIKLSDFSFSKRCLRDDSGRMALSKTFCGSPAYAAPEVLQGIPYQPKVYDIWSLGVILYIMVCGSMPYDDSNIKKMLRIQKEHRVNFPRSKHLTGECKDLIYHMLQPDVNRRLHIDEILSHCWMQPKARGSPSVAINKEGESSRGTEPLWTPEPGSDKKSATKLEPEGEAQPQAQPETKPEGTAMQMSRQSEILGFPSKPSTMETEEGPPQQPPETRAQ

Chain of Ribosomal protein S6 kinase alpha-3 (P51812 whole entry): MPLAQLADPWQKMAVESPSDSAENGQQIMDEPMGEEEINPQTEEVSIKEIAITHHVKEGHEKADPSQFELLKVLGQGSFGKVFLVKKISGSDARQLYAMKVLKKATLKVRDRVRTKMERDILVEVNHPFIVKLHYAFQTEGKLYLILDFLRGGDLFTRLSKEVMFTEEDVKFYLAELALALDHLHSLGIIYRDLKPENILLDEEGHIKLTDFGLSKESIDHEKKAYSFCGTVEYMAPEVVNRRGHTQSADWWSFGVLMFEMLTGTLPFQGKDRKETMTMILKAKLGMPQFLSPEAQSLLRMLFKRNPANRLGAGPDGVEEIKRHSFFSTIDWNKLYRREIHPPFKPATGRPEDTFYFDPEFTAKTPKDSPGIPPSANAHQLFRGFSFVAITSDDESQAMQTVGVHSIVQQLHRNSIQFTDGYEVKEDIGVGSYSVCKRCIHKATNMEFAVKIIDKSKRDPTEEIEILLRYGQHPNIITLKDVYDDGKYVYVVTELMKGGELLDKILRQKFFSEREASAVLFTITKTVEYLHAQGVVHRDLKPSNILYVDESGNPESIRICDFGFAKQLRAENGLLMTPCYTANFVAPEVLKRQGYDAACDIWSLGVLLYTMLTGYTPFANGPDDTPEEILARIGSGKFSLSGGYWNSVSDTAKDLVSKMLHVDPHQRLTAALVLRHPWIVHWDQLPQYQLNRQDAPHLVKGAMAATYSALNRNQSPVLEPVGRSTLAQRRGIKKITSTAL
Chain of Mitogen-activated protein kinase 1 (P28482 whole entry): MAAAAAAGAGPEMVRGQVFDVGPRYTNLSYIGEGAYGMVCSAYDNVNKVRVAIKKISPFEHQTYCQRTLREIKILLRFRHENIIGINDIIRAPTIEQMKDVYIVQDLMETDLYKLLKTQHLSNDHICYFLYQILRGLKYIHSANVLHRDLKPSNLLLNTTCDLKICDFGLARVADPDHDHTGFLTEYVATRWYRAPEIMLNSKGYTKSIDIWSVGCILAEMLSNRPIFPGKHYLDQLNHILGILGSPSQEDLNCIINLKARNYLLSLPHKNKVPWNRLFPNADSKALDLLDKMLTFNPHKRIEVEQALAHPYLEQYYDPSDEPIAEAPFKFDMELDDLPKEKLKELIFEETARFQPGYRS
Chain of Serine/threonine-protein kinase SIK3 (Homo sapiens) (Q9Y2K2 whole entry, looked up): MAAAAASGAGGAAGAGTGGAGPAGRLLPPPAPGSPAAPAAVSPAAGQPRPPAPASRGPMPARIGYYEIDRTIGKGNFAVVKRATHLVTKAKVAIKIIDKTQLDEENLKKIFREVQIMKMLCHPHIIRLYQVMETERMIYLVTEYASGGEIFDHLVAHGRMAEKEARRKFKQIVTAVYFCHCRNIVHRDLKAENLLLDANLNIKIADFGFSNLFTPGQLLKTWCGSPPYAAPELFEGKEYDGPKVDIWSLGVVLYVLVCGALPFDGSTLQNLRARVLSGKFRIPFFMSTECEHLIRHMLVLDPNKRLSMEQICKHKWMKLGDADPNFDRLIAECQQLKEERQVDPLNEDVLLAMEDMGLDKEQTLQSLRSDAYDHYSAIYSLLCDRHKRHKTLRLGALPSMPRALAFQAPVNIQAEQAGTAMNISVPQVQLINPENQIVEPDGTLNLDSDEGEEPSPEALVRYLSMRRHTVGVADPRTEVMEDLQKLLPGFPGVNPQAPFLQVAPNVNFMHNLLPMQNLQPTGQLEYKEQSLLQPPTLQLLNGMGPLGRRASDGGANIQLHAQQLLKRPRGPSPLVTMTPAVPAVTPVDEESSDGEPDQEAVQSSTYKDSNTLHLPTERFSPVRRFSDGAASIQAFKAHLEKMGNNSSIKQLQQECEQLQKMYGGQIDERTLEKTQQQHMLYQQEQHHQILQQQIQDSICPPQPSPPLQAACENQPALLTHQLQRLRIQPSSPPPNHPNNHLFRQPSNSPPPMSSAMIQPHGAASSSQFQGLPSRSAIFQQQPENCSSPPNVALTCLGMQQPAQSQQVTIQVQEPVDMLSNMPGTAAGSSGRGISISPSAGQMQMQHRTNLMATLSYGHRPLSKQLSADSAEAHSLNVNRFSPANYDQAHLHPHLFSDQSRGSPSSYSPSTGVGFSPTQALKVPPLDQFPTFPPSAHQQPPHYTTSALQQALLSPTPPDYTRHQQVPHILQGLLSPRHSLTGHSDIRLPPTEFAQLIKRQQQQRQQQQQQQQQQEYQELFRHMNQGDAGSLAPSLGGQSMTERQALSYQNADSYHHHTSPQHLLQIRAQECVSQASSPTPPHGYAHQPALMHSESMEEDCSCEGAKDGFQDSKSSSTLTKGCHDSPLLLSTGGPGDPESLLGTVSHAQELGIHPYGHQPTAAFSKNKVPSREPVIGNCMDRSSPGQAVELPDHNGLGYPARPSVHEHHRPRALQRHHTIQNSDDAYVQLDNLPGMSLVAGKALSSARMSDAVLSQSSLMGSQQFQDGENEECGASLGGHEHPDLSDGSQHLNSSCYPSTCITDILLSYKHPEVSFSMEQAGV
Chain of Tyrosine-protein kinase Lck (P06239 2-509 limits assumed): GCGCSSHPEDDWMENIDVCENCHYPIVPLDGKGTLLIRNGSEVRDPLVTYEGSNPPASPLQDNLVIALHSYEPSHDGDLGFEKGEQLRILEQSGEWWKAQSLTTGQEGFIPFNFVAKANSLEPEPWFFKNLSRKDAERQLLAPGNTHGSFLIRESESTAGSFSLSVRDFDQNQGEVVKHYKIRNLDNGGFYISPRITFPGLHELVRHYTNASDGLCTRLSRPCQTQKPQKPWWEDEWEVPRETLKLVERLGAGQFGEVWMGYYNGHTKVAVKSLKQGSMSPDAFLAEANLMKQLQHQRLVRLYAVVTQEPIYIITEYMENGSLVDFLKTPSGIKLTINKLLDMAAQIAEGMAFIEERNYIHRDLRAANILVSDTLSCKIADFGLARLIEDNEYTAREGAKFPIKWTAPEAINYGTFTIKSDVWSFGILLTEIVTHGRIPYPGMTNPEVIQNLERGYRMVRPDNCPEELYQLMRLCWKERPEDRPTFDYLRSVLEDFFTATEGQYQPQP
Chain of Serine/threonine-protein kinase OSR1 (Homo sapiens) (O95747 2-527 limits assumed): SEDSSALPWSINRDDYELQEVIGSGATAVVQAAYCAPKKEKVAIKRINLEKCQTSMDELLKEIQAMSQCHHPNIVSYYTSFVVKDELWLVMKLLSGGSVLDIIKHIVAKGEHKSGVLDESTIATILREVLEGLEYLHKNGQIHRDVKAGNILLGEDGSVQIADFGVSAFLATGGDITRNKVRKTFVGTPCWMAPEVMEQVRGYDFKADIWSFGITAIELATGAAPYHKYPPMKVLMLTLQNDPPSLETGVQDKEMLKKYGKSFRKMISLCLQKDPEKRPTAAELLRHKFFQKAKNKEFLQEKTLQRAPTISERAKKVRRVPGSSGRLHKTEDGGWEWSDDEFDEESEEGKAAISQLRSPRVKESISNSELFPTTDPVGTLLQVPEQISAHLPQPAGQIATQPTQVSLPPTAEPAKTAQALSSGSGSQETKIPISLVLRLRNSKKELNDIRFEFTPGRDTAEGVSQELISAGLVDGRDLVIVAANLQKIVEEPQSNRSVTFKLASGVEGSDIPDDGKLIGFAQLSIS
Chain of Fibroblast growth factor receptor 3 (P22607 23-806 limits assumed): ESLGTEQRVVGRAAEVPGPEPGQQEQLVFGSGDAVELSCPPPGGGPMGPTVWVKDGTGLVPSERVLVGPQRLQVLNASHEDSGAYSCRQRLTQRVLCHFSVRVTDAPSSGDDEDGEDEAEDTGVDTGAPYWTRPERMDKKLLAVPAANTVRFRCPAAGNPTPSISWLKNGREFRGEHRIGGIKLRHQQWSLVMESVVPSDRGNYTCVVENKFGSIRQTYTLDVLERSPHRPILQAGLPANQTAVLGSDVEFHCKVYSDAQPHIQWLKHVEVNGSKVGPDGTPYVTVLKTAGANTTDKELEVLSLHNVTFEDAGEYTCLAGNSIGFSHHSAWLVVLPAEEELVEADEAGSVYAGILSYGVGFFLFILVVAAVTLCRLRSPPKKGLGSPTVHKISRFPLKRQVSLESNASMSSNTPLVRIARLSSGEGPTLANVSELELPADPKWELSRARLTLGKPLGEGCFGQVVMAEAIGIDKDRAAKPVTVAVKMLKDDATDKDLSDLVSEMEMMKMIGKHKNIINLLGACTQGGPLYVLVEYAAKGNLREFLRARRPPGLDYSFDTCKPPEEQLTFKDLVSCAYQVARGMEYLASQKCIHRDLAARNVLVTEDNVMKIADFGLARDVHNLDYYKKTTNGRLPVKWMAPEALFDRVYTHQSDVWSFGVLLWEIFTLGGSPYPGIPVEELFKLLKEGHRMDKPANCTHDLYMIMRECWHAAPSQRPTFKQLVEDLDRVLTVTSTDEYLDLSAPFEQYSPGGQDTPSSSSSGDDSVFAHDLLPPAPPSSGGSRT
Chain of Calcium/calmodulin-dependent protein kinase type II subunit delta (Homo sapiens) (Q13557 whole entry): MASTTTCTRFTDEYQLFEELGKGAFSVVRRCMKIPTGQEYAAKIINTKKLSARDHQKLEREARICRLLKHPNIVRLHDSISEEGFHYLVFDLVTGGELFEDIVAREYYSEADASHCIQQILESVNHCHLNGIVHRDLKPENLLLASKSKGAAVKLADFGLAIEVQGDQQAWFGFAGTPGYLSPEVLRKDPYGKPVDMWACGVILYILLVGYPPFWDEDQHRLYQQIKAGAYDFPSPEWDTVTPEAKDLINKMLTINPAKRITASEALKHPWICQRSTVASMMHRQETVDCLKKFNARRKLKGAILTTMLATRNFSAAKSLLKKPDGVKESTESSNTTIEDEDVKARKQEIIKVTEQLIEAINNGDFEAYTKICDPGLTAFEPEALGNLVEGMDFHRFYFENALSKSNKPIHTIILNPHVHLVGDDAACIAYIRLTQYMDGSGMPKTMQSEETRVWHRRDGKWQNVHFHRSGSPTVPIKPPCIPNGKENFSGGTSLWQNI

SMILES: C=CC(=O)Nc1ccc(C(=O)Nc2[nH]nc3c2CN(C(=O)N[C@H](CN(C)C)c2ccccc2)C3(C)C)cc1
- % of engagement [1]: -2.5%

SMILES: COc1cc(N(C)c2ccnc3ccc(C(F)(F)F)cc23)cc(OC)c1OC
- % binding [2]: 79%
- % binding [3]: 94%

SMILES: O=C(NOC[C@H](O)CO)c1ccc(F)c(F)c1Nc1ccc(I)cc1F
- % of control [4]: 88%
- % of control [5]: 100%
- % of control [6]: 88%
- % of control [7]: 100%

SMILES: COc1cc(Nc2nc(C)cc(-c3cnn4nc(OC)ccc34)n2)cc(C(F)(F)F)c1
- % of control [8]: 70%

SMILES: CNC(=O)Nc1ccc(-c2nc(N3CC4CCC(C3)O4)c3cnn(C4CCC5(CC4)OCCO5)c3n2)cc1
- % of control [9]: 35%

SMILES: CC(C)(O)[C@H](F)CN1Cc2cc(NC(=O)c3cnn4cccnc34)c(N3CCOCC3)cc2C1=O
- dTM [10]: 0.4 K

SMILES: CCC(=O)N1CCN(c2ccc(-n3c(=O)ccc4cnc5ccc(-c6cnc7ccccc7c6)cc5c43)cc2C(F)(F)F)CC1
- % of control [11]: 38%

SMILES: CN(C)C/C=C/C(=O)Nc1ccc(C(=O)N2CCCC(Nc3ncc(Cl)c(-c4c[nH]c5ccccc45)n3)C2)cc1 (stereo not drawn)
- % of control [12]: 88%
- % of control [13]: 83%
